From US20220332799A1, “HERV INHIBITORS FOR USE IN TREATING TAUOPATHIES” (Deutsches Zentrum Für Neurodegenerative Erkrankungen E.V. …, priority 2019, published 2022)

Test system: HEK Tau-FRsol cells
Assay: Tau-FR aggregate induction by coculture with MCF-7 Tau-GFPAD donor cells
Assay type: cell-based, human
Settings: donors pretreated with 2 μM for 4 d; coculture 3 d without drug; vs DMSO
Experimental: FIG. 14: Human endogenous retroviruses contribute to the spreading of protein aggregates. • a. Experimental workflow. A human breast cancer cell line MCF-7 (4) was engineered to stably express Tau-GFP and induced to propagate Tau aggregates by exposure to Alzheimer's disease brain homogenate (AD). A single cell clone was subsequently isolated and used in the experiment (MCF-7 Tau-GFPAD). This donor clone was treated with 2 μM 5-Aza-2-deoxycytidine (Aza) for 4 d to de-repress HERV expression. Pretreated donor cells were cocultured with HEK-Tau-FRsol cells. • b. […] Statistics: Unpaired Student's t-test (n=3). • c. Quantitative analysis of recipient cells with induced Tau-FR aggregates following coculture with DMSO-treated or Aza-treated donor cells. […] Recipients were subsequently cocultured with transduced donors that had been passaged at least 5 times post transduction. • e. shRNA-mediated downregulation of Syncytin-1 mRNA in MCF-7 Tau-GFPAD cells assessed by quantitative real-time PCR. […] Quantitative analysis of recipient cells with induced Tau-FR aggregates following coculture with donors with decreased HERV-W Syncytin-1 expression. […]
To inhibit methyltransferase, MCF-7 Tau-GFPAD cells were treated with 2 μM Aza or DMSO for 4 d. […] Afterwards, the total numbers of viable cells and the viability upon drug treatments were determined using the Vi-VELLTMXR Cell Viability Analyzer (Beckman Coulter). […]

Nc1ncn([C@H]2C[C@H](O)[C@@H](CO)O2)c(=O)n1 [Decitabine, 5-aza-2′-deoxycytidine]
recipient cells with induced Tau-FR aggregates in cocultures: increased recipient cells with aggregates in cocultures
